Assay results reported in PMC5478473 (Nature chemical biology, 2017).

Target: T1, Tet(50) (unidentified prokaryotic organism, UniProt A0A059WYP6)
T1 sequence (A0A059WYP6 1-388): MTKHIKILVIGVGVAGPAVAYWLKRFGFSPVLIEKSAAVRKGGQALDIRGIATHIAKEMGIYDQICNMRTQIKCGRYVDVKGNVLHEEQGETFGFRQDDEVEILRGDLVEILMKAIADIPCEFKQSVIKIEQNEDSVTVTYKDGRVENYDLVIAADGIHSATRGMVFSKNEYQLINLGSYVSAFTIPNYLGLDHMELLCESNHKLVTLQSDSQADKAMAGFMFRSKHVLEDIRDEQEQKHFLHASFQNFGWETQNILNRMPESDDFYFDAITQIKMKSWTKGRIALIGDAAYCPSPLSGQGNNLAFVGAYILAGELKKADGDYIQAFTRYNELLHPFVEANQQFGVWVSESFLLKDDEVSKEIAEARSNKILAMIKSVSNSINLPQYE

SMILES: CN(C)[C@@H]1C(O)=C(C(N)=O)C(=O)[C@@]2(O)C(O)=C3C(=O)c4c(O)ccc(Cl)c4[C@@](C)(O)[C@H]3C[C@@H]12 [chlortetracycline]
- Km: 6.3 µM
